Reference: the supplement of paper PMC11451515

Tested on: NOMO1
Test: cell viability relative to DMSO control; higher = less cytotoxic
Conditions: 48 h
Method in brief: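 Before seeding, each leukemia line was adapted for at least four passages in each medium. NOMO1 or SEM cells (500 cells/well) and P12-Ichikawa cells (1000 cells/well) went into 1536-well plates at 5 μl, then received library compounds in DMSO by pin dosing across 11 threefold concentrations, 47 μM to 0.79 nM. Readout was CellTiter-Glo One luminescence after 48 h at 37°C, and viability is given as a per-plate percentage of DMSO wells, with cell-free wells as background.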

[1] = HPLM + 10% dialyzed FBS, 0.000781 µM
[2] = HPLM + 10% dialyzed FBS, 0.00234 µM
[3] = HPLM + 10% dialyzed FBS, 0.00702 µM
[4] = HPLM + 10% dialyzed FBS, 0.0211 µM
[5] = HPLM + 10% dialyzed FBS, 0.0632 µM
[6] = HPLM + 10% dialyzed FBS, 0.19 µM
[7] = HPLM + 10% dialyzed FBS, 0.569 µM
[8] = HPLM + 10% dialyzed FBS, 1.71 µM
[9] = HPLM + 10% dialyzed FBS, 5.12 µM
[10] = HPLM + 10% dialyzed FBS, 15.4 µM
[11] = HPLM + 10% dialyzed FBS, 46.1 µM
[12] = RPMI 5 mM glucose + 10% dialyzed FBS, 0.000781 µM
[13] = RPMI 5 mM glucose + 10% dialyzed FBS, 0.00234 µM
[14] = RPMI 5 mM glucose + 10% dialyzed FBS, 0.00702 µM
[15] = RPMI 5 mM glucose + 10% dialyzed FBS, 0.0211 µM
[16] = RPMI 5 mM glucose + 10% dialyzed FBS, 0.0632 µM
[17] = RPMI 5 mM glucose + 10% dialyzed FBS, 0.19 µM
[18] = RPMI 5 mM glucose + 10% dialyzed FBS, 0.569 µM
[19] = RPMI 5 mM glucose + 10% dialyzed FBS, 1.71 µM
[20] = RPMI 5 mM glucose + 10% dialyzed FBS, 5.12 µM
[21] = RPMI 5 mM glucose + 10% dialyzed FBS, 15.4 µM
[22] = RPMI 5 mM glucose + 10% dialyzed FBS, 46.1 µM
[23] = RPMI 5 mM glucose + 10% FBS, 0.000781 µM
[24] = RPMI 5 mM glucose + 10% FBS, 0.00234 µM
[25] = RPMI 5 mM glucose + 10% FBS, 0.00702 µM
[26] = RPMI 5 mM glucose + 10% FBS, 0.0211 µM
[27] = RPMI 5 mM glucose + 10% FBS, 0.0632 µM
[28] = RPMI 5 mM glucose + 10% FBS, 0.19 µM
[29] = RPMI 5 mM glucose + 10% FBS, 0.569 µM
[30] = RPMI 5 mM glucose + 10% FBS, 1.71 µM
[31] = RPMI 5 mM glucose + 10% FBS, 5.12 µM
[32] = RPMI 5 mM glucose + 10% FBS, 15.4 µM
[33] = RPMI 5 mM glucose + 10% FBS, 46.1 µM

Row | Structure (SMILES) | cell viability [1] [%] | cell viability [2] [%] | cell viability [3] [%] | cell viability [4] [%] | cell viability [5] [%] | cell viability [6] [%] | cell viability [7] [%] | cell viability [8] [%] | cell viability [9] [%] | cell viability [10] [%] | cell viability [11] [%] | cell viability [12] [%] | cell viability [13] [%] | cell viability [14] [%] | cell viability [15] [%] | cell viability [16] [%] | cell viability [17] [%] | cell viability [18] [%] | cell viability [19] [%] | cell viability [20] [%] | cell viability [21] [%] | cell viability [22] [%] | cell viability [23] [%] | cell viability [24] [%] | cell viability [25] [%] | cell viability [26] [%] | cell viability [27] [%] | cell viability [28] [%] | cell viability [29] [%] | cell viability [30] [%] | cell viability [31] [%] | cell viability [32] [%] | cell viability [33] [%]
1 | C[C@H]1COC2=C3N1\C=C(C(O)=O)/C(=O)C3=CC(=C2N4CCN(C)CC4)F | 124 | 123 | 128 | 114 | 122 | 106 | 113 | 108 | 94.8 | 85.9 | 61 | 122 | 112 | 127 | 124 | 124 | 115 | 112 | 112 | 98.1 | 98.7 | 72.9 |  |  |  |  |  |  |  |  |  |  | 
2 | Cn1cnc2c(F)c(Nc3ccc(Br)cc3F)c(C(=O)NOCCO)cc21 | 91.4 | 83.3 | 95.9 | 27.1 | 62.4 | 56.4 | 57.7 | 41.4 | 34.3 | 40 | 35.3 | 77.1 | 90.2 | 98.7 | 37.9 | 75.3 | 49.6 | 45.4 | 40.5 | 39.6 | 34.5 | 34.6 | 83.3 | 80.2 | 82.4 | 16.4 | 75.5 | 66.2 | 50.2 | 42.6 | 37.5 | 31.2 | 36.5
3 | O=C1[C@H](Cc2ccc(O)cc2)N2C(=O)CCN(C(=O)NCc3ccccc3)[C@H]2CN1Cc1cccc2ccccc12 | 86.9 | 82.6 | 88.9 | 97.3 | 92.1 | 78.6 | 86.3 | 85 | 74.9 | 18.3 | 74 | 76.7 | 89.9 | 89.5 | 104 | 92.5 | 89.5 | 84.2 | 82.7 | 79.2 | 13.7 | 82.8 | 81.7 | 78.7 | 86.9 | 81 | 83.1 | 73.9 | 83.7 | 73.5 | 73.1 | 10.6 | 81.1
4 | Cc1cnn(C)c1C(=O)Nc1cc(Nc2ccc3c(/C=C/c4ccccn4)n[nH]c3c2)ccc1F | 119 | 125 | 124 | 141 | 129 | 113 | 143 | 120 | 102 | 70.4 | 12.9 |  |  |  |  |  |  |  |  |  |  |  |  |  |  |  |  |  |  |  |  |  | 
5 | CCN1CCN(CC1)CC(=O)NC2=CC=C(C3=C2C4=C(S3)C=CC=C4)C5=C6O\C(=C/C(=O)C6=CC=C5)N7CCOCC7 | 108 | 121 | 122 | 123 | 117 | 124 | 121 | 94.2 | 79.7 | 63.6 | 75.3 | 120 | 120 | 131 | 118 | 128 | 128 | 109 | 110 | 77.8 | 64.3 | 99.1 | 116 | 115 | 123 | 120 | 128 | 129 | 130 | 120 | 98 | 74.5 | 86.1
6 | CCN(CC)CCCCNc1ncc2cc(-c3cc(OC)cc(OC)c3)c(NC(=O)NC(C)(C)C)nc2n1 | 122 | 136 | 125 | 113 | 111 | 108 | 94.8 | 86.8 | 104 | 83.8 | 33.2 |  |  |  |  |  |  |  |  |  |  |  |  |  |  |  |  |  |  |  |  |  | 
7 | CCOC(=O)[C@@H](N)Cc1ccc(-c2cc(O[C@H](c3ccc(Cl)cc3-n3ccc(C)n3)C(F)(F)F)nc(N)n2)cc1.O=C(O)CNC(=O)c1ccccc1 | 114 | 111 | 121 | 125 | 114 | 118 | 114 | 116 | 94.2 | 102 | 5.68 | 102 | 117 | 102 | 100 | 97 | 98.6 | 122 | 105 | 98.3 | 88.6 | 4.2 | 108 | 96.2 | 109 | 101 | 94.3 | 90.3 | 97.6 | 103 | 95.4 | 90.1 | 7.52
8 | COc1ccccc1OCC(O)COC(N)=O (stereo not given) | 79.5 | 104 | 108 | 119 | 127 | 116 | 122 | 119 | 130 | 125 | 6.3 | 94.7 | 109 | 111 | 105 | 116 | 119 | 102 | 107 | 122 | 108 | 100 | 102 | 98.1 | 102 | 113 | 109 | 98 | 119 | 103 | 114 | 119 | 113
9 | OC[C@H]1O[C@H]([C@H](O)[C@@H]1O)N2\C=C/C(=O)NC2=O | 111 | 127 | 105 | 114 | 122 | 107 | 103 | 119 | 118 | 95.4 | 98.4 | 93.9 | 85.1 | 99.8 | 99.3 | 95.7 | 103 | 104 | 93.7 | 96 | 90.5 | 87.8 | 89.4 | 87.3 | 95.6 | 85.4 | 94.7 | 96.5 | 94.6 | 91.4 | 79.4 | 91.6 | 80.8
10 | CC(C)c1ccc2c(c1)c(SC(C)(C)C)c(CC(C)(C)C(=O)[O-])n2Cc1ccc(Cl)cc1 | 110 | 98.7 | 110 | 104 | 109 | 101 | 111 | 95 | 82 | 95.1 | 87.8 | 90.5 | 91.5 | 91.9 | 91.6 | 81.5 | 87.7 | 79 | 81.4 | 78.5 | 81.6 | 75.5 | 84.2 | 103 | 92.8 | 90.4 | 88.9 | 96.9 | 105 | 87.9 | 86.3 | 85.4 | 85.1
